SMILES strings stand for the structures.

As usually defined, the GI50 is the concentration giving 50% growth inhibition. In general, melting point refers to the temperature, or range, at which the solid turns liquid.

For one data set, the system named is DU145 cells. Description: Antiproliferative assay in DU145 cells, WST-1 cell proliferation assay, 96 hours (GI50). It is filed as cell-based. To be noted: 96 hours post-treatment, triplicate, read-out: DU-145 GI50. As to the method:
Antiproliferative assays. DU145 cells were seeded into 96 well microtiter plates (5000 cells/well) and treated with […] of compounds or with vehicle control. At 96 hours post-treatment, live cell counts were determined by WST-1 cell proliferation assay (Roche, Penzberg, Germany), as per manufacturer's instructions. Viability results were expressed as a percentage of mean control values resulting in the calculation of the 50% growth inhibition (GI50). All experiments were performed in triplicate.
A general note: Tetrazolium dyes change colour on reduction, which living cells bring about.
`COc1cccc(CN2CCc3cc(OS(N)(=O)=O)c(OC)cc3C2)c1` [compound 72, 7-Methoxy-2-(3-methoxybenzyl)-6-O-sulfamoyl-1,2,3,4-tetrahydroisoquinoline]: the GI50 was under 10 µM. Turning to `COc1ccc(CN2CCc3cc(OS(N)(=O)=O)c(OC)cc3C2)cc1` [compound 73, 7-Methoxy-2-(4-methoxybenzyl)-6-O-sulfamoyl-1,2,3,4-tetrahydroisoquinoline], the GI50 was in the range of 50 to 100 µM. As for `COc1cc2c(cc1OS(N)(=O)=O)CCN(Cc1ccccc1)C2` [compound 74, 2-Benzyl-7-methoxy-6-O-sulfamoyl-1,2,3,4-tetrahydroisoquinoline], the GI50 lay within 50 to 100 µM. In the case of `COc1ccccc1CN1CCc2cc(OS(N)(=O)=O)c(OC)cc2C1` [compound 75, 7-Methoxy-2-(2-methoxybenzyl)-6-O-sulfamoyl-1,2,3,4-tetrahydroisoquinoline], the GI50 is under 10 µM. As to `COc1cc(CN2CCc3cc(OS(N)(=O)=O)c(OC)cc3C2)cc(OC)c1` [compound 76, 2-(3,5-Dimethoxybenzyl)-7-methoxy-6-O-sulfamoyl-1,2,3,4-tetrahydroisoquinoline], the GI50 is under 10 µM. With `COc1cc2c(cc1OS(N)(=O)=O)CCN(Cc1cccc(C)c1)C2` [compound 77, 7-Methoxy-2-(3-methylbenzyl)-6-O-sulfamoyl-1,2,3,4-tetrahydroisoquinoline], the concentration for 50% growth inhibition (GI50) was 10 to 50 µM.

Take `COc1cc2c(cc1OS(N)(=O)=O)CCN(Cc1cccc(Oc3ccccc3)c1)C2` [compound 78, 7-Methoxy-2-(3-phenoxybenzyl)-6-O-sulfamoyl-1,2,3,4-tetrahydroisoquinoline]: the GI50 is 10 to 50 µM. The same measure, in the same setting: under `COc1cc2c(cc1OS(N)(=O)=O)CCN(Cc1cccc(OS(N)(=O)=O)c1)C2` [compound 79, 7-Methoxy-2-(3-(O-sulfamoyl)benzyl)-6-O-sulfamoyl-1,2,3,4-tetrahydroisoquinoline] stands 10 to 50 µM. On to `CCOc1cccc(CN2CCc3cc(OS(N)(=O)=O)c(OC)cc3C2)c1` [compound 80, 2-(3-Ethoxybenzyl)-7-methoxy-6-O-sulfamoyl-1,2,3,4-tetrahydroisoquinoline], for which the GI50 is under 10 µM. On to `COc1cc2c(cc1OS(N)(=O)=O)CCN(Cc1cccc(C(C)=O)c1)C2` [compound 82, 2-(3-Acetylbenzyl)-7-methoxy-6-O-sulfamoyl-1,2,3,4-tetrahydroisoquinoline], for which the GI50 is under 10 µM. Turning to `COc1cc2c(cc1OS(N)(=O)=O)CCN(Cc1cccc(NC(C)=O)c1)C2` [compound 85, 2-(3-Acetamidobenzyl)-7-methoxy-6-O-sulfamoyl-1,2,3,4-tetrahydroisoquinoline], the GI50 is over 100 µM. Regarding `COc1cc2c(cc1OS(N)(=O)=O)CCN(Cc1cccc(OC(C)=O)c1)C2` [compound 87, 2-(3-Acetoxybenzyl)-7-methoxy-6-O-sulfamoyl-1,2,3,4-tetrahydroisoquinoline], the GI50 is 50 to 100 µM. Still for that read-out and setting: under `COc1cc2c(cc1OS(N)(=O)=O)CCN(Cc1cc(OC)c(OC)c(OC)c1)C2` [compound 90, 7-Methoxy-2-(3,4,5-trimethoxybenzyl)-6-O-sulfamoyl-1,2,3,4-tetrahydroisoquinoline] stands under 10 µM; under `COc1cc2c(cc1OS(N)(=O)=O)CCN(Cc1cccc(OC)c1OC)C2` [compound 91, 7-Methoxy-2-(2,3-dimethoxybenzyl)-6-O-sulfamoyl-1,2,3,4-tetrahydroisoquinoline], under 10 µM. In the case of `COc1ccc(CN2CCc3cc(OS(N)(=O)=O)c(OC)cc3C2)cc1OC` [compound 92, 7-Methoxy-2-(3,4-dimethoxybenzyl)-6-O-sulfamoyl-1,2,3,4-tetrahydroisoquinoline], the GI50 is under 10 µM. With `COc1cc2c(cc1OS(N)(=O)=O)CCN(Cc1ccc(OC)c(OC)c1OC)C2` [compound 93, 7-Methoxy-2-(2,3,4-trimethoxybenzyl)-6-O-sulfamoyl-1,2,3,4-tetrahydroisoquinoline], the GI50 lay in the range of 10 to 50 µM.

The same data set, now with this note: Homo sapiens, DU-145, 96 hours post-treatment, triplicate.
As to `COc1ccc(OC)c(CN2CCc3cc(OCc4ccccc4)c(OC)cc3C2)c1` [compound 21, 6-Benzyloxy-7-methoxy-2-(2,5-dimethoxybenzyl)-1,2,3,4-tetrahydroisoquinoline], the concentration for 50% growth inhibition (GI50) was 10 to 50 µM. Still for that read-out and setting: as for `COc1cc2c(cc1O)CCN(Cc1cccc(C)c1)C2` [compound 44, 6-Hydroxy-7-methoxy-2-(3-methylbenzyl)-1,2,3,4-tetrahydroisoquinoline], the figure is over 100 µM; as for `COc1cc2c(cc1O)CCN(Cc1cccc(NC(C)=O)c1)C2` [compound 50, 6-Hydroxy-7-methoxy-2-(3-acetamidobenzyl)-1,2,3,4-tetrahydroisoquinoline], over 100 µM.

Test system in the next data set: not given
Assay: not given
Settings: not given
For the compound `COc1cccc(CC2CCCc3cc(OCc4ccccc4)c(OC)cc3N2)c1` (centres unmarked) [compound 303, 7-Benzyloxy-8-methoxy-2-(3-methoxybenzyl)-2,3,4,5-tetrahydro-1H-benzoazepine], the melting point lay in the range of 92 to 93 °C. For the compound `COc1ccc(CN2CCCc3cc(OCc4ccccc4)c(OC)cc3C2)cc1` [compound 304, 7-Benzyloxy-8-methoxy-2-(4-methoxybenzyl)-2,3,4,5-tetrahydro-1H-benzo[c]azepine], the melting point fell in the range of 87 to 88 °C. The compound `COc1cc2c(cc1OCc1ccccc1)CCCN(Cc1cc(OC)c(OC)c(OC)c1)C2` [compound 305, 7-Benzyloxy-8-methoxy-2-(3,4,5-trimethoxybenzyl)-2,3,4,5-tetrahydro-1H-benzo[c]azepine] registered a melting point of 44 to 46 °C. `COc1cc2c(cc1O)CCCN(Cc1ccccc1OC)C2` [compound 306, 7-Hydroxy-8-methoxy-2-(2-methoxybenzyl)-2,3,4,5-tetrahydro-1H-benzo[c]azepine] returned a melting point of 136 to 137 °C. Take `COc1cccc(CN2CCCc3cc(O)c(OC)cc3C2)c1` [compound 307, 7-Hydroxy-8-methoxy-2-(3-methoxybenzyl)-2,3,4,5-tetrahydro-1H-benzo[e]azepine]: the melting point was in the range of 114 to 115 °C.

In turn, `COc1ccc(CN2CCCc3cc(O)c(OC)cc3C2)cc1` [compound 308, 7-Hydroxy-8-methoxy-2-(4-methoxybenzyl)-2,3,4,5-tetrahydro-1H-benzo[c]azepine] came in with a melting point of 105 to 107 °C.

Compound `COc1cc2c(cc1O)CCCN(Cc1cc(OC)c(OC)c(OC)c1)C2` [compound 309, 7-Hydroxy-8-methoxy-2-(3,4,5-trimethoxybenzyl)-2,3,4,5-tetrahydro-1H-benzo[c]azepine] showed a melting point of 46 to 48 °C.

`COc1cc2c(cc1OCc1ccccc1)CCCN(Cc1cc(OC)c(OC)c(OC)c1)C2=O` [compound 314, 7-Benzyloxy-8-methoxy-2-(3,4,5-trimethoxybenzyl)-2,3,4,5-tetrahydro-1H-benzo[c]azepin-1-one]: the melting point lay in the range of 134 to 135 °C. Turning to `COc1cc2c(cc1OCc1ccccc1)CCCC(=O)N2Cc1cc(OC)c(OC)c(OC)c1` [compound 318, 7-benzyloxy-8-methoxy-1-(3,4,5-trimethoxybenzyl)-4,5-dihydro-1H-benzo[b]azepin-2(3H)-one], the melting point fell in the range of 129 to 130 °C. Consider `COc1cc2c(cc1O)CCCC(=O)N2Cc1cc(OC)c(OC)c(OC)c1` [compound 319, 7-Hydroxy-8-methoxy-1-(3,4,5-trimethoxybenzyl)-4,5-dihydro-1H-benzo[b]azepin-2(3H)-one], for which the melting point fell in the range of 170 to 171 °C.

For the origin of these results see US8394825B2, “Compound” (Sterix Limited, priority 2007, dated 2013).
